Data reported in publication PMC11093748, “De novo identification of CD4^+ T cell epitopes” (Nature Methods, 2024).

Test system: TCR3
Test: Single SABR-II co-incubation, NFAT-GFP Jurkat
Type: cell-based, mouse
Details: TCR 3, Fig 5C
Excerpt: Given the predominance of HIP-reactive TCRs, we hypothesized that there may be other TCRs that respond to HIPs that were not encoded in our initial library configuration. While the initial I-Ag7 SABR-II library consisted of a number of HIPs, HIP formation is thought to be more widespread in pancreatic β-cells[52],[70]. Therefore, we sought to construct a defined, HIP-focused library to probe whether there were any undiscovered HIP-reactive TCRs that could be recognized by the clonally expanded TCR in our dataset. To test this, we utilized a published proteomic dataset, which predicted that several proteins that were highly expressed in secretory granules of β-cells may contribute to HIP formation. Using their predictions, we built a theoretical HIP library, in which all possible ‘left’ halves of the insulin C chain derived from natural cleavage products were fused to ‘right’ halves derived from secretory granule proteins (Fig. 5a). This 2,561-epitope library (12–25 amino acids per epitope) consisted of only HIPs and a small number of positive control epitopes (Supplementary Table 5). We screened the top three clonally expanded TCRs (TCR1, TCR2 and TCR3) against this library, as these TCRs had not been de-convoluted using the original library. […] To confirm that the HIP itself was important for the cognate interaction, we cloned single 14-mer epitopes into SABR-IIs consisting of seven amino acids of the left portion of the HIP and seven amino acids of the right portion of the HIP. In this way, no nine amino acids from either peptide sequence alone could occupy the binding pocket of I-Ag7, ensuring that TCR reactivity spanned the HIP junction. […] Of note, in all the epitopes that were tested, the ‘left’ half derived from insulin C was conserved, whereas the ‘right’ halves were derived from several other proteins (Fig. 5d). […] Moreover, the promiscuous binding of TCR3 to HIPs corroborates evidence from other NOD mouse-derived TCRs reacting to multiple HIPs[72].
For SABR library screens, 3 × 10^6 NFAT–GFP Jurkat cells expressing the SABR library were labeled with CellTrace Violet (BioLegend) according to the manufacturer’s protocol before incubation with 3 × 10^6 Jurkat cells expressing the TCR of interest. These mixtures were incubated in a six-well plate for 16–20 h. Cells were stained with anti-CD69-APC-Cy7 where indicated (BioLegend) and the top 1–2% of GFP^+CD69^+ cells were sorted for genomic DNA extraction, indexing and sequencing (see below). Multiplexed assays were scaled on a per-TCR basis (for example 3 × 10^6 for each of three TCRs against 9 × 10^6 library cells). For single SABR assays, unless otherwise defined, 5 × 10^5 SABR expressing NFAT–GFP Jurkat cells (or 5KC cells) were labeled with CellTrace Violet (BioLegend) according to the manufacturer’s protocol before incubation with 5 × 10^5 TCR-expressing Jurkat cells (or 5KC cells) in a round-bottom 96-well plate for 16–20 h. Cells were stained with anti-CD69-APC-Cy7 when indicated and acquired on the Attune NxT flow cytometer (Thermo Fisher Scientific). All flow analysis was performed using FlowJo (BD). For Daudi cell co-culture, 1 × 10^6 Jurkat cells expressing the TCR of interest were incubated with 1 × 10^6 Daudi cells expressing a SABR of interest for 3 days. On day 3, cells were labeled with anti-RT1B-PE and anti-Fas-APC-Cy7 before being acquired on the Attune NxT flow cytometer.

Sequence: LQTLALNAARDP
- %GFP+CD69+ cells of SABR-NFAT-GFP-Jurkat cells (technical replicate 1): 0.94%
- %GFP+CD69+ cells of SABR-NFAT-GFP-Jurkat cells (technical replicate 2): 0.89%
